Tests used:
Type in all cases: binding
KRAS G12S = target: T1, KRAS G12S (Homo sapiens, UniProt P01116, G12S); test: HTRF assay of K-Ras G12S interaction with SOS1 (PPI-HTRF); settings: 5 nM KRAS G12S, read-out: PPI-HTRF-5 nM KRAS G12S
T1 construct: made in house; host or cells: E. coli, e.g. BL21 (DE3)
Procedure, shortened: (§1)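 HTRF readout of GST-tagged K-Ras (WT or mutant) binding to His-hSOS1, using anti-GST-Eu donor and anti-6His-XL665 acceptor in HEPES pH 7.4 buffer with DTT, BSA and Igepal. Read after about 10 min or longer; duplicate compound dilutions from 10 μM. IC50 from 665/620 nm ratio.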

KRAS WT = target: T2, KRAS WT (Homo sapiens, UniProt P01116); test: HTRF assay of wildtype K-Ras interaction with SOS1 (PPI-HTRF); settings: HTRF, 5 nM KRAS WT; read-out: PPI-HTRF-5 nM KRAS WT
T2 construct: made in house; host or cells: E. coli, e.g. BL21 (DE3)
Procedure, shortened: as §1

KRAS G12D = target: T3, KRAS G12D (Homo sapiens, UniProt P01116, G12D); test: HTRF assay of K-Ras G12D interaction with SOS1 (PPI-HTRF); settings: HTRF, 5 nM KRAS G12D; read-out: PPI-HTRF-5 nM KRAS G12D
T3 construct: made in house; host or cells: E. coli, e.g. BL21 (DE3)
Procedure, shortened: as §1

T3 sequence (P01116 1-188 isoform P01116-2 G12D): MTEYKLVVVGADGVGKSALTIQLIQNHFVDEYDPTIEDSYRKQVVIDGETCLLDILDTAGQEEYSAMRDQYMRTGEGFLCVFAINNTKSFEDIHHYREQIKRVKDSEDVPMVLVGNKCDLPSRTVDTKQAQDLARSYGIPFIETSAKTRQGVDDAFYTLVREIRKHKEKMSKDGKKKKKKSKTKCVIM
T1 sequence (P01116 1-188 isoform P01116-2 G12S): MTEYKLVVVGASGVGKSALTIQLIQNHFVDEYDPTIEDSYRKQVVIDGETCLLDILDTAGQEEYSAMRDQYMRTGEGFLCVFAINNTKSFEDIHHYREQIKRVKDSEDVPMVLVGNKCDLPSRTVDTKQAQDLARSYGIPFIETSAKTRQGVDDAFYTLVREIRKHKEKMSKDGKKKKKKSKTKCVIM
T2 sequence (P01116 1-188 isoform P01116-2): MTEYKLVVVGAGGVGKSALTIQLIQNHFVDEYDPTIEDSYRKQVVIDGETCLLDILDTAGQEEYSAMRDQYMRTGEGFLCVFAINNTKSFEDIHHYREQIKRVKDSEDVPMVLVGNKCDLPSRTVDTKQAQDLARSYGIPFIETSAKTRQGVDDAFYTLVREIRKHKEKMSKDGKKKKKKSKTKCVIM

SMILES | IC50 (KRAS G12S) [µM] | IC50 (KRAS WT) [µM] | IC50 (KRAS G12D) [µM]
C[C@H](Oc1nc(N2CCC3(CCCN3C(=O)n3cncn3)C2)c2cc(Cl)c(-c3ccc(F)c4sc(N)c(C#N)c34)c(F)c2n1)[C@@H]1CCCN1C (stereo partly drawn) [Compound 241, 4-(4-(1-(1H-1,2,4-triazole-1-carbonyl)-1,7-diazaspiro[4.4]nonan-7-yl)-6-chloro-8-fluoro-2-((S)-1-((S)-1-methylpyrrolidin-2-yl)ethoxy)quinazolin-7-yl)-2-amino-7-fluorobenzo[b]thiophene-3-carbonitrile] | < 5 | < 5 | < 5
C[C@H]1N(c2nc(OC[C@@]34CCCN3C[C@H](F)C4)nc3c(F)c(-c4ccc(F)c5sc(N)c(C#N)c45)c(Cl)cc23)CC[C@]12CCN2C(=O)n1cnc(Cl)n1 [Compound 229, 2-amino-4-(6-chloro-4-((4S,5R)-1-(3-chloro-1H-1,2,4-triazole-1-carbonyl)-5-methyl-1,6-diazaspiro[3.4]octan-6-yl)-8-fluoro-2-(((2R,7aS)-2-fluorotetrahydro-1H-pyrrolizin-7a(5H)-yl)methoxy)quinazolin-7-yl)-7-fluorobenzo[b]thiophene-3-carbonitrile] | < 5 | < 5 | < 5
N#Cc1c(N)sc2c(F)ccc(-c3c(Cl)cc4c(N5CCC6(CCCCN6C(=O)C6CC6(F)F)C5)nc(OC[C@@]56CCCN5C[C@H](F)C6)nc4c3F)c12 (stereo partly drawn) [Compound 240, 2-amino-4-(6-chloro-4-(6-(2,2-difluorocyclopropane-1-carbonyl)-2,6-diazaspiro[4.5]decan-2-yl)-8-fluoro-2-(((2R,7aS)-2-fluorotetrahydro-1H-pyrrolizin-7a(5H)-yl)methoxy)quinazolin-7-yl)-7-fluorobenzo[b]thiophene-3-carbonitrile] | < 5 | < 5 | < 5
CN1CCC[C@H]1COc1nc(N2CCC3(CC2)NC(=O)NC3=O)c2cc(Cl)c(-c3cccc4sc(N)nc34)c(F)c2n1 [Compound 249, 8-(7-(2-aminobenzo[d]thiazol-4-yl)-6-chloro-8-fluoro-2-(((S)-1-methylpyrrolidin-2-yl)methoxy)quinazolin-4-yl)-1,3,8-triazaspiro[4.5]decane-2,4-dione] | < 5 | < 5 | < 5
N#Cc1c(N)sc2c(F)ccc(-c3c(Cl)cc4c(N5CCC6(CCCN6C(=O)[C@@H]6N[C@H]6C6CC6)CC5)nc(OC[C@@]56CCCN5C[C@H](F)C6)nc4c3F)c12 [Compound 295, 2-amino-4-(6-chloro-4-(1-((2R,3S)-3-cyclopropylaziridine-2-carbonyl)-1,8-diazaspiro[4.5]decan-8-yl)-8-fluoro-2-(((2R,7aS)-2-fluorotetrahydro-1H-pyrrolizin-7a(5H)-yl)methoxy)quinazolin-7-yl)-7-fluorobenzo[b]thiophene-3-carbonitrile] | < 5 | < 5 | < 5
Nc1nc2c(-c3c(Cl)cc4c(N5CCC6(CCN6C(=O)n6cncn6)C5)nc(OC[C@@]56CCCN5C[C@H](F)C6)nc4c3F)ccc(F)c2s1 (stereo partly drawn) [Compound 264, (6-(7-(2-amino-7-fluorobenzo[d]thiazol-4-yl)-6-chloro-8-fluoro-2-(((2R,7aS)-2-fluorotetrahydro-1H-pyrrolizin-7a(5H)-yl)methoxy)quinazolin-4-yl)-1,6-diazaspiro[3.4]octan-1-yl)(1H-1,2,4-triazol-1-yl)methanone] | < 5 | < 5 | < 5
Nc1nc2c(-c3c(Cl)cc4c(N5CCCC6(CCCN6C(=O)n6cncn6)C5)nc(OC[C@@]56CCCN5C[C@H](F)C6)nc4c3F)ccc(F)c2s1 (stereo partly drawn) [Compound 211, (7-(7-(2-amino-7-fluorobenzo[d]thiazol-4-yl)-6-chloro-8-fluoro-2-(((2R,7aS)-2-fluorotetrahydro-1H-pyrrolizin-7a(5H)-yl)methoxy)quinazolin-4-yl)-1,7-diazaspiro[4.5]decan-1-yl)(1H-1,2,4-triazol-1-yl)methanone] | < 5 | < 5 | < 5
CN(C)C1CN(c2nc(N3CCC4(CCN4C(=O)n4cncn4)C3)c3cc(Cl)c(-c4ccc(F)c5sc(N)c(C#N)c45)c(F)c3n2)C1 (stereo not drawn) [Compound 203, 4-(4-(1-(1H-1,2,4-triazole-1-carbonyl)-1,6-diazaspiro[3.4]octan-6-yl)-6-chloro-2-(3-(dimethylamino)azetidin-1-yl)-8-fluoroquinazolin-7-yl)-2-amino-7-fluorobenzo[b]thiophene-3-carbonitrile] | < 5 | < 5 | > 5
C[C@H]1CN(C(=O)n2cnc(F)n2)[C@]12CCN(c1nc(OC[C@@]34CCCN3C[C@H](F)C4)nc3c(F)c(-c4ccc(F)c5sc(N)c(C#N)c45)c(Cl)cc13)C2 [Compound 255, 2-amino-4-(6-chloro-8-fluoro-4-((3S,4R)-1-(3-fluoro-1H-1,2,4-triazole-1-carbonyl)-3-methyl-1,6-diazaspiro[3.4]octan-6-yl)-2-(((2R,7aS)-2-fluorotetrahydro-1H-pyrrolizin-7a(5H)-yl)methoxy)quinazolin-7-yl)-7-fluorobenzo[b]thiophene-3-carbonitrile] | < 5 | < 5 | < 5

Further lines, results first:

IC50 (KRAS G12S) [µM] | IC50 (KRAS WT) [µM] | IC50 (KRAS G12D) [µM] | SMILES
< 5 | < 5 | < 5 | Cc1cc(N)nc(-c2c(Cl)cc3c(N4CCC5(CCN5C(=O)n5cncn5)C4)nc(OC[C@@]45CCCN4C[C@H](F)C5)nc3c2F)c1C(F)(F)F (stereo partly drawn) [Compound 286, (6-(7-(6-amino-4-methyl-3-(trifluoromethyl)pyridin-2-yl)-6-chloro-8-fluoro-2-(((2R,7aS)-2-fluorotetrahydro-1H-pyrrolizin-7a(5H)-yl)methoxy)quinazolin-4-yl)-1,6-diazaspiro[3.4]octan-1-yl)(1H-1,2,4-triazol-1-yl)methanone]
< 5 | < 5 | < 5 | N#Cc1c(N)sc2c(F)ccc(-c3c(Cl)cc4c(N5CC[C@@]6(CCN6C(=O)n6cnc(CCl)n6)C5)nc(OC[C@@]56CCCN5C[C@H](F)C6)nc4c3F)c12 [Compound 322, 2-amino-4-(6-chloro-4-((R)-1-(3-(chloromethyl)-1H-1,2,4-triazole-1-carbonyl)-1,6-diazaspiro[3.4]octan-6-yl)-8-fluoro-2-(((2R,7aS)-2-fluorotetrahydro-1H-pyrrolizin-7a(5H)-yl)methoxy)quinazolin-7-yl)-7-fluorobenzo[b]thiophene-3-carbonitrile]
< 5 | < 5 | < 5 | N#Cc1cnn(C(=O)N2CCC23CCN(c2nc(OC[C@@]45CCCN4C[C@H](F)C5)nc4c(F)c(-c5ccc(F)c6sc(N)c(C#N)c56)c(Cl)cc24)C3)c1 (stereo partly drawn) [Compound 309, 1-(6-(7-(2-amino-3-cyano-7-fluorobenzo[b]thiophen-4-yl)-6-chloro-8-fluoro-2-(((2R,7aS)-2-fluorotetrahydro-1H-pyrrolizin-7a(5H)-yl)methoxy)quinazolin-4-yl)-1,6-diazaspiro[3.4]octane-1-carbonyl)-1H-pyrazole-4-carbonitrile]
< 5 | < 5 | < 5 | N#Cc1c(N)sc2c(F)ccc(-c3c(Cl)cc4c(N5CCC6(CCCN6)C5)nc(OC[C@@]56CCCN5C[C@H](F)C6)nc4c3F)c12 (stereo partly drawn) [Compound 284, 2-amino-4-(6-chloro-8-fluoro-2-(((2R,7aS)-2-fluorotetrahydro-1H-pyrrolizin-7a(5H)-yl)methoxy)-4-(1,7-diazaspiro[4.4]nonan-7-yl)quinazolin-7-yl)-7-fluorobenzo[b]thiophene-3-carbonitrile]
< 5 | < 5 | < 5 | N#Cc1c(N)sc2c(F)ccc(-c3c(Cl)cc4c(N5CCOCC6(CCN6C(=O)n6cncn6)C5)nc(OC[C@@]56CCCN5C[C@H](F)C6)nc4c3F)c12 (stereo partly drawn) [Compound 351, 4-(4-(1-(1H-1,2,4-triazole-1-carbonyl)-6-oxa-1,9-diazaspiro[3.6]decan-9-yl)-6-chloro-8-fluoro-2-(((2R,7aS)-2-fluorotetrahydro-1H-pyrrolizin-7a(5H)-yl)methoxy)quinazolin-7-yl)-2-amino-7-fluorobenzo[b]thiophene-3-carbonitrile]
< 5 | < 5 | < 5 | CC(C)c1ncn(C(=O)N2CCC23CCN(c2nc(OC[C@@]45CCCN4C[C@H](F)C5)nc4c(F)c(-c5ccc(F)c6sc(N)c(C#N)c56)c(Cl)cc24)C3)n1 (stereo partly drawn) [Compound 304, 2-amino-4-(6-chloro-8-fluoro-2-(((2R,7aS)-2-fluorotetrahydro-1H-pyrrolizin-7a(5H)-yl)methoxy)-4-(1-(3-isopropyl-1H-1,2,4-triazole-1-carbonyl)-1,6-diazaspiro[3.4]octan-6-yl)quinazolin-7-yl)-7-fluorobenzo[b]thiophene-3-carbonitrile]
< 5 | < 5 | < 5 | C#Cc1c(F)ccc2cc(O)cc(-c3ncc4c(N5CCC6(CCN6)C5)nc(OC[C@@]56CCCN5C[C@H](F)C6)nc4c3F)c12 (stereo partly drawn) [Compound 268, 5-ethynyl-6-fluoro-4-(8-fluoro-2-(((2R,7aS)-2-fluorotetrahydro-1H-pyrrolizin-7a(5H)-yl)methoxy)-4-(1,6-diazaspiro[3.4]octan-6-yl)pyrido[4,3-d]pyrimidin-7-yl)naphthalen-2-ol]

Source: patent US20240116951A1, “HETEROCYCLIC COMPOUNDS AND USES THEREOF” (Kumquat Biosciences Inc., priority 2022, published 2024)
